Data taken from ChEMBL document CHEMBL3792276, “Design and synthesis of diamide-coupled benzophenones as potential anticancer agents” (Eur J Med Chem, 2016).
Activity calls are given as the source filed them. No cut-off for these calls is given here.

Legend:
A549 [1] = experiment: Cytotoxicity against human A549 cells after 48 hrs by MTT assay; type: functional, cell-based
MCF7 [2] = experiment: Cytotoxicity against human MCF7 cells after 48 hrs by MTT assay; type: functional, cell-based
DLA [3] = experiment: (§1) Cytotoxicity against mouse DLA cells after 48 hrs by MTT assay; type: functional, cell-based
A549 [4] = experiment: Cytotoxicity against human A549 cells after 48 hrs by LDH leak assay; type: functional, cell-based
MCF7 [5] = experiment: Cytotoxicity against human MCF7 cells after 48 hrs by LDH leak assay; type: functional, cell-based
DLA [6] = experiment: (§2) Cytotoxicity against mouse DLA cells after 48 hrs by LDH leak assay; type: functional, cell-based
A549 [7] = experiment: Cytotoxicity against human A549 cells after 48 hrs by trypan blue assay; type: functional, cell-based
MCF7 [8] = experiment: Cytotoxicity against human MCF7 cells after 48 hrs by trypan blue assay; type: functional, cell-based
DLA [9] = experiment: (§3) Cytotoxicity against mouse DLA cells after 48 hrs by trypan blue assay; type: functional, cell-based
[10] = as §1; type: functional, cell-based
[11] = as §2; type: functional, cell-based
[12] = as §3; type: functional, cell-based
[13] = Antitumor activity against mouse DLA cells allografted in Swiss albino mouse assessed as inhibition of tumor growth at 75 mg/kg, ip administered as 3 doses on alternative days post 4 days of tumor implantation measured after final dose of drug challenge; type: functional; conditions: 96 h
Mus musculus [14] = experiment: Decrease in ascites fluid secretion in Swiss albino mouse allografted with mouse DLA cells at 75 mg/kg, ip administered as 3 doses on alternative days post 4 days of tumor implantation; type: functional, organism-based
Mus musculus [15] = experiment: Decrease in cell count Swiss albino mouse allografted with mouse DLA cells at 75 mg/kg, ip administered as 3 doses on alternative days post 4 days of tumor implantation; type: functional, organism-based
[16] = Antitumor activity against mouse DLA cells allografted in Swiss albino mouse assessed as induction of tumor regression at 75 mg/kg, ip administered as 3 doses on alternative days post 4 days of tumor implantation; type: functional
[17] = Antitumor activity against mouse DLA cells allografted in Swiss mouse assessed as increase in animal survival time at 75 mg/kg, ip administered as 3 doses on alternative days post 4 days of tumor implantation; type: functional
Mus musculus [18] = organism: Mus musculus; experiment: Antiangiogenic activity against Swiss albino mouse allografted with mouse DLA cells assessed as decrease in peritoneal angiogenesis measured as […]; type: functional
Chorioallantoic membrane = experiment: Antiangiogenic activity in chicken chorioallantoic membrane assessed as inhibition of rVEGF-induced neovascularization measured upto 12 days; type: functional; conditions: Gallus gallus

Row | SMILES | Activity (A549 [1]) | Activity (MCF7 [2]) | Activity (DLA [3]) | Activity (A549 [4]) | Activity (MCF7 [5]) | Activity (DLA [6]) | Activity (A549 [7]) | Activity (MCF7 [8]) | Activity (DLA [9]) | also measured
1 | Cc1ccc(C(=O)c2ccc(OCC(=O)Nc3ccccc3NC(=O)COc3ccc(C(=O)c4ccccc4)cc3C)c(C)c2)cc1 | inactive | inactive | inactive | inactive | inactive | inactive | inactive | inactive | inactive | 
2 | Cc1cc(C(=O)c2ccccc2)ccc1OCC(=O)Nc1ccccc1NC(=O)COc1ccc(C(=O)c2ccccc2)cc1C | inactive | inactive | inactive | inactive | inactive | inactive | inactive | inactive | inactive | 
3 | Cc1cc(C(=O)c2ccccc2)ccc1OCC(=O)Nc1ccccc1NC(=O)COc1ccc(C(=O)c2ccc(Br)cc2)cc1C | inactive | inactive | inactive | inactive | inactive | inactive | inactive | inactive | inactive | 
4 | O=c1[nH]cc(F)c(=O)[nH]1 | inactive | inactive | inactive | inactive | inactive | inactive | inactive | inactive | inactive | 
5 | Cc1ccc(C(=O)c2ccc(OCC(=O)Nc3ccccc3NC(=O)COc3ccc(C(=O)c4ccc(Br)cc4)cc3C)c(C)c2)cc1 | inactive | inactive | inactive | inactive | inactive | inactive | inactive | inactive | inactive | 
6 | Cc1cc(C(=O)c2ccc(Br)cc2)ccc1OCC(=O)Nc1ccccc1NC(=O)COc1cc(C)c(C(=O)c2ccccc2)cc1C | inactive | inactive | inactive | inactive | inactive | inactive | inactive | inactive | inactive | 
7 | Cc1cc(C(=O)c2ccc(Br)cc2)ccc1OCC(=O)Nc1ccccc1NC(=O)COc1ccc(C(=O)c2ccccc2C)cc1C |  |  |  |  |  |  |  |  |  | IC50 (A549 [1]; A549, 48 h): 20 µM; IC50 (MCF7 [2]; MCF7, 48 h): 23 µM; IC50 [10]: 23 µM; IC50 (A549 [4]; A549, 48 h): 20 µM; IC50 (MCF7 [5]; MCF7, 48 h): 23 µM; IC50 [11]: 23 µM; IC50 (A549 [7]; A549, 48 h): 20 µM; IC50 (MCF7 [8]; MCF7, 48 h): 23 µM; IC50 [12]: 23 µM; inhibition in vivo at 75 mg/kg [13]: 80%; inhibition (Mus musculus [14]): Active; inhibition (Mus musculus [15]): Active; fold change (FC) [16]: 2.5; MST [17]: 37 days; inhibition (INH) (Mus musculus [18]): >50%; inhibition (Chorioallantoic membrane): Active
8 | Cc1cc(C(=O)c2ccccc2)ccc1OCC(=O)Nc1ccccc1NC(=O)COc1ccc(C(=O)c2ccccc2C)cc1C | inactive | inactive | inactive | inactive | inactive | inactive | inactive | inactive | inactive | 
9 | Cc1cc(C(=O)c2ccccc2)ccc1OCC(=O)Nc1ccccc1NC(=O)COc1cc(C)c(C(=O)c2ccccc2)cc1C | inactive | inactive | inactive | inactive | inactive | inactive | inactive | inactive | inactive | 
10 | Cc1cc(C(=O)c2ccc(Br)cc2)ccc1OCC(=O)Nc1ccccc1NC(=O)COc1c(F)cc(C(=O)c2ccc(Cl)cc2)cc1Cl | inactive | inactive | inactive | inactive | inactive | inactive | inactive | inactive | inactive | 
11 | Cc1cc(C(=O)c2ccccc2)c(C)cc1OCC(=O)Nc1ccccc1NC(=O)COc1cc(C)c(C(=O)c2ccccc2)cc1C | inactive | inactive | inactive | inactive | inactive | inactive | inactive | inactive | inactive | 
12 | Cc1cc(C(=O)c2ccc(Br)cc2)ccc1OCC(=O)Nc1ccccc1NC(=O)COc1ccc(C(=O)c2ccc(Br)cc2)cc1C | inactive | inactive | inactive | inactive | inactive | inactive | inactive | inactive | inactive | 
13 | Cc1cc(C(=O)c2ccccc2)ccc1OCC(=O)Nc1ccccc1NC(=O)COc1c(F)cc(C(=O)c2ccc(Cl)cc2)cc1Cl | inactive | inactive | inactive | inactive | inactive | inactive | inactive | inactive | inactive | 
